Laboratory results taken from ChEMBL document CHEMBL4007425, “Drug Repurposing of Histone Deacetylase Inhibitors That Alleviate Neutrophilic Inflammation in Acute Lung Injury and Idiopathic Pulmonary Fibrosis via Inhibiting Leukotriene A4 Hydrolase and Blocking LTB4 Biosynthesis” (J Med Chem, 2017).
Calls of active or inactive are those of the source. No cut-off for these calls is given here.

What was measured:
[1] = molecular target: T1, Polyunsaturated fatty acid lipoxygenase ALOX12 (Homo sapiens) (UniProt P18054); assay: Inhibition of recombinant human N-terminal His-tagged 12-LOX expressed in Escherichia coli assessed as conversion of arachidonic acid to HETEs measured for 300 secs by UV-visible spectrophotometric analysis
T1 sequence (whole entry): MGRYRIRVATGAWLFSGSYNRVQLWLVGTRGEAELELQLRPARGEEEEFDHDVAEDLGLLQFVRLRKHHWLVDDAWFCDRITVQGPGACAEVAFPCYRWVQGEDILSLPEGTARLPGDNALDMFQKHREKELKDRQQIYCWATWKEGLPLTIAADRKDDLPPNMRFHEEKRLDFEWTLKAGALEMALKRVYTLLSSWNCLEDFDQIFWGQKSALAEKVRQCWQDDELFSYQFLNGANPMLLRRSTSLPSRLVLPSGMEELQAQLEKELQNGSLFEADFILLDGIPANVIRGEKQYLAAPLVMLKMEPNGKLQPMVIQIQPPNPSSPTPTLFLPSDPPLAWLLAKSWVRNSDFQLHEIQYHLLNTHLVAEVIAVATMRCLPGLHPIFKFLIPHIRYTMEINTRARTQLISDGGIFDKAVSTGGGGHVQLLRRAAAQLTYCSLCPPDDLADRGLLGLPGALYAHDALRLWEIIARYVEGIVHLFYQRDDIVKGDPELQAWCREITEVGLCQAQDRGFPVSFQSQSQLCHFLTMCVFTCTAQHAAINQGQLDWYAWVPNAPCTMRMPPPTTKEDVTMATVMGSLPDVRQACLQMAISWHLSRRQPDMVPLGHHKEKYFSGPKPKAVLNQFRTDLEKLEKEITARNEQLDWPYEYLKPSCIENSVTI

[2] = molecular target: T2, Polyunsaturated fatty acid lipoxygenase ALOX15 (Homo sapiens) (UniProt P16050); assay: Inhibition of recombinant human N-terminal His-tagged 15-LOX-1 expressed in Escherichia coli using arachidonic acid as substrate measured every 2 min intervals for 20 mins by fluorescence analysis
T2 sequence (whole entry): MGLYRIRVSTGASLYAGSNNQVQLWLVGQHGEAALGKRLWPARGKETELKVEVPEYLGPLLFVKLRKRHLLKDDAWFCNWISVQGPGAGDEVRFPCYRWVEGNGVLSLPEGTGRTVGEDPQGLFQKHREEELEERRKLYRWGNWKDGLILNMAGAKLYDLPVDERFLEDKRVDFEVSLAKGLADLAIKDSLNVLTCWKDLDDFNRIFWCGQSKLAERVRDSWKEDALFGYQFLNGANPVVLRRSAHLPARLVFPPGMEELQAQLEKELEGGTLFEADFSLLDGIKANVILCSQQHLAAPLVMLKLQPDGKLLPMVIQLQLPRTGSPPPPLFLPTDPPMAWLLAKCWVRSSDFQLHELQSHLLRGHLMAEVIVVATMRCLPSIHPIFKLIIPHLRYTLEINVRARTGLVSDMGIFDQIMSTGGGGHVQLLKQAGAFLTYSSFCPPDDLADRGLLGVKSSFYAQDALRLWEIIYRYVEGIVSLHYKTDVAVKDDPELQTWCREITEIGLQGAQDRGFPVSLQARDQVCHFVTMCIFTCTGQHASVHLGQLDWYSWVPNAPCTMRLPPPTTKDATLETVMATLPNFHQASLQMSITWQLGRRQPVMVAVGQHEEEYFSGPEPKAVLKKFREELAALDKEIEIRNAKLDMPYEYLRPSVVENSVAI

[3] = system: Mus musculus; assay: Anti-inflammatory activity in BLM-induced C57BL/6 mouse model of acute lung neutrophilic inflammation assessed as reduction in number of neutrophils in BALF at 10 and 25 mg/kg, ip qd for 7 days post BLM challenge measured on day 7; assay type: functional, organism-based
[4] = molecular target: T3, Leukotriene A-4 hydrolase (LTA4H) aminopeptidase activity (Homo sapiens, UniProt P09960); assay: Inhibition of recombinant human LTA4H aminopeptidase activity expressed in Escherichia coli BL21 (DE3) pLysS assessed as formation of p-NA from Ala-p-NA at 10 uM preincubated for 10 mins followed by substrate addition measured after 10 mins
T3 sequence (P09960 whole entry): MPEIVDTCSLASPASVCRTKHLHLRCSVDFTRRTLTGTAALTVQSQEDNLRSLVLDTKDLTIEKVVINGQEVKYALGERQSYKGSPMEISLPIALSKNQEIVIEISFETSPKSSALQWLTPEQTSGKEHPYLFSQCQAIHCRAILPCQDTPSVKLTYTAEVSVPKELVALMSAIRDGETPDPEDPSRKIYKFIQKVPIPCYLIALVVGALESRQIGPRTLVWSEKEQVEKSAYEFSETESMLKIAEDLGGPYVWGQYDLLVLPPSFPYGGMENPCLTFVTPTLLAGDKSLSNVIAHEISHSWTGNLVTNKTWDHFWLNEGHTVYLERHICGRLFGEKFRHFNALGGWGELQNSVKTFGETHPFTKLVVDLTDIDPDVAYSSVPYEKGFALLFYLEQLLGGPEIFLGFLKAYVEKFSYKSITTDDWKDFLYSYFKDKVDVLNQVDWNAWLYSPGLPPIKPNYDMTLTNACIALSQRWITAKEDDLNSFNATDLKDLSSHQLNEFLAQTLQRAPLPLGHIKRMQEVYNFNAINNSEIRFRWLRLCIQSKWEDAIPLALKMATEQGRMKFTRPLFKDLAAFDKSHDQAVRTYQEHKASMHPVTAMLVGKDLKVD

[5] = molecular target: T4, Leukotriene A-4 hydrolase (Mus musculus, UniProt P24527); assay: Inhibition of LTA4H in C57BL/6 mouse assessed as reduction in LTB4 production pre-incubated for 30 mins before 5-(methylamino)-2-({(2R,3R,6S,8S,9R,11R)-3,9,11-trimethyl-8-[(1S)-1-methyl-2-oxo-2-(1H-pyrrol-2-yl)ethyl]-1,7-dioxaspiro[5.5]undec-2-yl}methyl)-1,3-benzoxazole-4-carboxylic acid stimulation for 30 mins by ELISA
T4 sequence (P24527 whole entry): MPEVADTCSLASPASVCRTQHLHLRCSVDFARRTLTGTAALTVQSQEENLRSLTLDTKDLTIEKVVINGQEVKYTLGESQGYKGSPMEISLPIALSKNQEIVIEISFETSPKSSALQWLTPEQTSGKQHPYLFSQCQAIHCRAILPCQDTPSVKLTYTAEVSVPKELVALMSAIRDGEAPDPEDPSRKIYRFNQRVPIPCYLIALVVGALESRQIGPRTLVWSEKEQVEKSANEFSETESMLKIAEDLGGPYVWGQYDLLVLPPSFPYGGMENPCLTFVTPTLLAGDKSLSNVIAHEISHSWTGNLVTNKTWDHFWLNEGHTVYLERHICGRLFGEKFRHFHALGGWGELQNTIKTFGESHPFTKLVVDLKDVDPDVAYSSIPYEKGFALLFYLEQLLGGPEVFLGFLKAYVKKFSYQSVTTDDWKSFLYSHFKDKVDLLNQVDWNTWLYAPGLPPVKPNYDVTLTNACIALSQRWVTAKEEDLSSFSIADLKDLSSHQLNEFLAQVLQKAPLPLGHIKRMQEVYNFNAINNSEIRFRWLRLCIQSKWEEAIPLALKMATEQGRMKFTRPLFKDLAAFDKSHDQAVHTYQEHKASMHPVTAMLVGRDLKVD

[6] = molecular target: T5, Leukotriene A-4 hydrolase (Homo sapiens) (UniProt P09960); conditions: at 10 µM
T5 sequence (whole entry): T3 sequence (P09960 whole entry)
Description: Inhibition of recombinant human LTA4H Epoxide Hydrolase expressed in Escherichia coli BL21 (DE3) pLysS at 10 uM preincubated for 10 mins followed by addition of LTA4 as substrate measured after 15 mins by reverse-phase HPLC analysis

SMILES	INH [1] [µM]	INH [2] [µM]	Activity [3]	inhibition at 10 min, 10 µM ([4]; probe Ala-p-NA) [%]	IC50 [5] [µM]	inhibition [6] [%]	inhibition at 10 min, 10 µM [4] [%]
CN(C)c1ccc(C(=O)NCCCCCCC(=O)NO)cc1	> 50	> 50	Active	> 50	0.79	> 50	
O=C(CCCCCCC(=O)Nc1ccccc1)NO [VORINOSTAT]	> 50	> 50	Active		6.15	> 50	> 50
